According to US20260007683A1, “PHARMACEUTICAL COMPOSITIONS COMPRISING HIV INTEGRASE INHIBITORS” (Gilead Sciences, Inc., priority 2024, published 2026):

Tests used:
[1] = Hygroscopicity by dynamic vapor sorption (DVS); type: physicochemical; details: for change of solid form post DVS experiment: after DVS cycle 5-95% RH at 25° C.; for water absorbed (dynamic vapor sorption): up to 95% RH at 25° C.
Method: Hygroscopicity was studied using dynamic vapor sorption (DVS, TA Q5000 SA, TA Instruments, New Castle, DE or DVS, DVS Intrinsic, Surface Measurement Systems, London, UK). A sample (1-20 mg) was placed in an aluminum DVS pan and loaded on the sample side of the twin pan balance. The water sorption and desorption were studied as a function of relative humidity (RH) at 25° C. In 10% RH increments, the relative humidity was increased from 5% RH to 95% RH and then decreased back to 5%. […] Data analysis was performed using Universal Analysis 2000 Version 4.7A (TA Instruments, New Castle, DE) for TA DVS runs and Microsoft Excel for SMS DVS runs.

[2] = Drying of solid form under ambient conditions (form conversion); type: physicochemical
Source text: Compound of Formula I, Form II is a metastable methanol solvated phase. It was isolated when compound of Formula I, Form I was slurried in methanol for about 60 days and identified by x-ray of the wet cake.

Row | change of solid form post DVS experiment [1] | water absorbed (dynamic vapor sorption) [1] | Structure (SMILES) | form conversion upon drying [2]
1 | not have changed form | about 0.097% | O=C(NCc1c(F)cc(F)cc1F)c1cn2c(c(O)c1=O)C(=O)N1CCCC[C@H]2C1 [Compound of Formula I, Form I, (7S)-12-hydroxy-1,11-dioxo-N-(2,4,6-trifluorobenzyl)-1,4,5,6,7,11-hexahydro-3H-2,7-methanopyrido[1,2-a][1,4]diazonine-10-carboxamide] | –
2 | – | – | O=C(NCc1c(F)cc(F)cc1F)c1cn2c(c(O)c1=O)C(=O)N1CCCC[C@H]2C1 [Compound of Formula I, Form II, (7S)-12-hydroxy-1,11-dioxo-N-(2,4,6-trifluorobenzyl)-1,4,5,6,7,11-hexahydro-3H-2,7-methanopyrido[1,2-a][1,4]diazonine-10-carboxamide] | convert to compound of Formula I, Form III
3 | not have changed form | about 0.87% | O=C(NCc1c(F)cc(F)cc1F)c1cn2c(c(O)c1=O)C(=O)N1CCCC[C@H]2C1 [Compound of Formula I, Form III, (7S)-12-hydroxy-1,11-dioxo-N-(2,4,6-trifluorobenzyl)-1,4,5,6,7,11-hexahydro-3H-2,7-methanopyrido[1,2-a][1,4]diazonine-10-carboxamide] | –
4 | not have changed form | about 3.5% | O=C(NCc1c(F)cc(F)cc1F)c1cn2c(c(O)c1=O)C(=O)N1CCCC[C@H]2C1 [Compound of Formula I, Form IV, (7S)-12-hydroxy-1,11-dioxo-N-(2,4,6-trifluorobenzyl)-1,4,5,6,7,11-hexahydro-3H-2,7-methanopyrido[1,2-a][1,4]diazonine-10-carboxamide] | –
